Reference: PubChem BioAssay AID328 (DTP/NCI, 2004)
Inconclusive results and toxic doses are left out. The calls were made as follows: active = survival T/C of 150% or more; inactive = T/C below 125% in these data.

Test system: BDF1 mice, P388 leukemia ip, median survival T/C
Assay: NCI In Vivo Anticancer Drug Screen. Data for tumor model P388 Leukemia (intraperitoneal) in B6D2F1 (BDF1) mice
Conditions: endpoint: median survival time, higher = longer survival
In short: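 T/C = treated-group survival ÷ vehicle-control survival; tumour transplanted into mice before dosing.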

[1] = dose: 50.0 mg/kg/injection, schedule: Q01DX009 (ip), vehicle: Klucel (hydroxypropylcellulose) (HPC)
[2] = dose: 100.0 mg/kg/injection, schedule: Q01DX009 (ip), vehicle: Klucel (hydroxypropylcellulose) (HPC)
[3] = dose: 200.0 mg/kg/injection, schedule: Q01DX009 (ip), vehicle: Klucel (hydroxypropylcellulose) (HPC)
[4] = dose: 400.0 mg/kg/injection, schedule: Q01DX009 (ip), vehicle: Klucel (hydroxypropylcellulose) (HPC)
[5] = dose: 100.0 mg/kg/injection, schedule: Q01DX009 (ip), vehicle: saline with Tween-80
[6] = dose: 100.0 mg/kg/injection, schedule: Q04DX003 (ip), vehicle: saline
[7] = dose: 100.0 mg/kg/injection, schedule: Q04DX003 (ip), vehicle: saline with Tween-80
[8] = dose: 200.0 mg/kg/injection, schedule: Q04DX003 (ip), vehicle: saline with Tween-80
[9] = dose: 400.0 mg/kg/injection, schedule: Q04DX003 (ip), vehicle: saline with Tween-80
[10] = dose: 25.0 mg/kg/injection, schedule: Q01DX009 (ip), vehicle: Klucel (hydroxypropylcellulose) (HPC)
[11] = dose: 50.0 mg/kg/injection, schedule: Q04DX003 (ip), vehicle: saline with Tween-80
[12] = dose: 6.25 mg/kg/injection, schedule: Q01DX009 (ip), vehicle: saline with Tween-80
[13] = dose: 25.0 mg/kg/injection, schedule: Q01DX009 (ip), vehicle: saline with Tween-80
[14] = dose: 50.0 mg/kg/injection, schedule: Q01DX009 (ip), vehicle: saline with Tween-80

Measured: T/C

CCCCc1c(C(=O)OCC)oc(C(=O)OCC)c(CCCC)c1=O
inactive: dose: 12.5 mg/kg/injection, schedule: Q04DX003 (ip), vehicle: Klucel (hydroxypropylcellulose) (HPC) 99 % of control | dose: 25.0 mg/kg/injection, schedule: Q04DX003 (ip), vehicle: Klucel (hydroxypropylcellulose) (HPC) 91 % of control | dose: 50.0 mg/kg/injection, schedule: Q04DX003 (ip), vehicle: Klucel (hydroxypropylcellulose) (HPC) 115 % of control | dose: 100.0 mg/kg/injection, schedule: Q04DX003 (ip), vehicle: Klucel (hydroxypropylcellulose) (HPC) 91 % of control | dose: 400.0 mg/kg/injection, schedule: Q04DX003 (ip), vehicle: Klucel (hydroxypropylcellulose) (HPC) 102 % of control

CC1=C(C)C2(C)C1(C)C1(C)C(C)=C(C)C21C (stereo not drawn)
inactive: [1] 100 % of control | [2] 90 % of control | [3] 105 % of control

Cn1cnc2c1c(=O)[nH]c(=O)n2C
inactive: [2] 109 % of control | [3] 104 % of control | [4] 97 % of control

COc1ccc2c(c1)CCN(C1=C(C)C(=O)CC1)C2CC(=O)O (stereo not drawn)
inactive: dose: 100.0 mg/kg/injection, schedule: Q01DX001 (ip), vehicle: saline sonified 100 % of control | dose: 200.0 mg/kg/injection, schedule: Q01DX001 (ip), vehicle: saline sonified 100 % of control | dose: 400.0 mg/kg/injection, schedule: Q01DX001 (ip), vehicle: saline sonified 100 % of control

CC1(c2ccco2)NC(=O)NC1=O (stereo not drawn)
inactive: [5] 105 % of control | dose: 200.0 mg/kg/injection, schedule: Q01DX009 (ip), vehicle: saline with Tween-80 105 % of control | dose: 400.0 mg/kg/injection, schedule: Q01DX009 (ip), vehicle: saline with Tween-80 105 % of control

CCOC(=O)C(C)(Br)C(=O)OCC
inactive: dose: 25.0 mg/kg/injection, schedule: Q04DX003 (ip), vehicle: saline 109 % of control | dose: 50.0 mg/kg/injection, schedule: Q04DX003 (ip), vehicle: saline 100 % of control | [6] 113 % of control

Cc1ccc(NC(=O)c2ccccc2C(=O)O)c(C)c1
inactive: [7] 100 % of control | [8] 100 % of control | [9] 118 % of control

CCCCCCCCCCOP(=O)(O)OCCCCCCCCCC
inactive: dose: 12.5 mg/kg/injection, schedule: Q01DX009 (ip), vehicle: Klucel (hydroxypropylcellulose) (HPC) 95 % of control | [10] 99 % of control | [1] 95 % of control

COc1ccc(/C=C/C(=O)c2ccc(OCc3ccccc3)c(OC)c2)cc1OC
inactive: [11] 105 % of control | [7] 99 % of control | [8] 87 % of control | [9] 87 % of control

Cc1ccccc1NS(=O)(=O)c1c([N+](=O)[O-])ncn1C
inactive: [1] 110 % of control | [2] 116 % of control | [3] 116 % of control | [4] 95 % of control

Cc1csc(/N=C/c2ccc([N+](=O)[O-])o2)n1
inactive: [11] 109 % of control | [7] 118 % of control | [8] 113 % of control

CC(C)=NNC(=O)C1CCN1Cc1ccccc1 (stereo not drawn)
inactive: dose: 50.0 mg/kg/injection, schedule: Q01DX001 (ip), vehicle: saline 102 % of control | dose: 100.0 mg/kg/injection, schedule: Q01DX001 (ip), vehicle: saline 98 % of control | dose: 200.0 mg/kg/injection, schedule: Q01DX001 (ip), vehicle: saline 93 % of control | dose: 400.0 mg/kg/injection, schedule: Q01DX001 (ip), vehicle: saline 102 % of control

CN1C(=O)CC2(CCN(CCCC(=O)c3ccc(F)cc3)CC2)C1=O
inactive: [12] 116 % of control | dose: 12.5 mg/kg/injection, schedule: Q01DX009 (ip), vehicle: saline with Tween-80 107 % of control | [10] 118 % of control | [13] 124 % of control | [1] 120 % of control | [14] 97 % of control

CCOCCOCCOc1nc(F)c(Cl)cc1Cl
inactive: [7] 100 % of control | [8] 118 % of control

c1ccc(C2CCCCCC2)cc1
inactive: dose: 100.0 mg/kg/injection, schedule: Q01DX009 (ip), vehicle: saline 110 % of control | [6] 100 % of control | dose: 166.0 mg/kg/injection, schedule: Q01DX009 (ip), vehicle: saline 110 % of control | dose: 200.0 mg/kg/injection, schedule: Q01DX009 (ip), vehicle: saline 105 % of control | dose: 200.0 mg/kg/injection, schedule: Q04DX003 (ip), vehicle: saline 90 % of control | dose: 400.0 mg/kg/injection, schedule: Q04DX003 (ip), vehicle: saline 100 % of control

Nc1ccccc1.[C-]#[O+].[C-]#[O+].[C-]#[O+].[C-]#[O+].[C-]#[O+].[Cr]
inactive: dose: 2.5 mg/kg/injection, schedule: Q01DX009 (ip), vehicle: saline 91 % of control | dose: 5.0 mg/kg/injection, schedule: Q01DX009 (ip), vehicle: saline 101 % of control

CC(C)(C)OC(=O)NN=C1CCC(C(C)(C)C)CC1 (stereo not drawn)
inactive: dose: 83.75 mg/kg/injection, schedule: Q01DX001 (ip), vehicle: Klucel (hydroxypropylcellulose) (HPC) 95 % of control | [5] 109 % of control | dose: 150.0 mg/kg/injection, schedule: Q04DX003 (ip), vehicle: Klucel (hydroxypropylcellulose) (HPC) 100 % of control | dose: 167.5 mg/kg/injection, schedule: Q01DX001 (ip), vehicle: Klucel (hydroxypropylcellulose) (HPC) 100 % of control | dose: 225.0 mg/kg/injection, schedule: Q04DX003 (ip), vehicle: Klucel (hydroxypropylcellulose) (HPC) 100 % of control | dose: 335.0 mg/kg/injection, schedule: Q01DX001 (ip), vehicle: Klucel (hydroxypropylcellulose) (HPC) 95 % of control | dose: 335.0 mg/kg/injection, schedule: Q04DX003 (ip), vehicle: Klucel (hydroxypropylcellulose) (HPC) 90 % of control

Cc1ncc([N+](=O)[O-])n1CCSC(=N)N
inactive: [7] 105 % of control | [8] 105 % of control

CC(C)CCc1cc(O)c(CCC(C)C)cc1O
inactive: dose: 0.78 mg/kg/injection, schedule: Q01DX009 (ip), vehicle: saline with Tween-80 101 % of control | dose: 1.56 mg/kg/injection, schedule: Q01DX009 (ip), vehicle: saline with Tween-80 102 % of control | dose: 3.12 mg/kg/injection, schedule: Q01DX009 (ip), vehicle: saline with Tween-80 102 % of control | [12] 104 % of control

CC(=N\[O-])/C(C)=N/O.CC(=N\[O-])/C(C)=N/O.[Cl-].[Cl-].[Rh+3].c1ccncc1
inactive: dose: 75.0 mg/kg/injection, schedule: Q01DX009 (ip), vehicle: water 110 % of control | dose: 150.0 mg/kg/injection, schedule: Q01DX009 (ip), vehicle: water 110 % of control

N#CC12CC3CC(CC(C3)C1)C2
inactive: dose: 5.0 mg/kg/injection, schedule: Q01DX009 (ip), vehicle: saline with Tween-80 100 % of control | dose: 20.0 mg/kg/injection, schedule: Q01DX009 (ip), vehicle: saline with Tween-80 88 % of control

O=C(CI)Nc1ccc(O)c2ccccc12
inactive: dose: 0.78 mg/kg/injection, schedule: Q01DX009 (ip), vehicle: water 97 % of control | dose: 1.56 mg/kg/injection, schedule: Q01DX009 (ip), vehicle: water 106 % of control | dose: 3.12 mg/kg/injection, schedule: Q01DX009 (ip), vehicle: water 106 % of control | dose: 6.25 mg/kg/injection, schedule: Q01DX009 (ip), vehicle: water 108 % of control | dose: 6.25 mg/kg/injection, schedule: Q04DX003 (ip), vehicle: water 89 % of control | dose: 12.5 mg/kg/injection, schedule: Q01DX009 (ip), vehicle: water 123 % of control | dose: 12.5 mg/kg/injection, schedule: Q04DX003 (ip), vehicle: water 99 % of control | dose: 25.0 mg/kg/injection, schedule: Q04DX003 (ip), vehicle: water 104 % of control

CC(C)(Br)C(=O)c1ccco1
inactive: [13] 109 % of control | [14] 113 % of control | [5] 113 % of control

CCCCCCCCCCCCCCCCOc1ccc(CC)cc1
inactive: dose: 50.0 mg/kg/injection, schedule: Q01DX001 (ip), vehicle: saline with Tween-80 95 % of control | dose: 100.0 mg/kg/injection, schedule: Q01DX001 (ip), vehicle: saline with Tween-80 90 % of control | dose: 200.0 mg/kg/injection, schedule: Q01DX001 (ip), vehicle: saline with Tween-80 100 % of control
